Columns and labels:
[1] = system: THP-1; experiment: Anti-inflammatory activity in human THP1 cells assessed as inhibition of PMA-induced IL-1beta production after 48 hrs by ELISA; assay type: functional, cell-based; settings: THP-1, 48 h
[2] = system: THP-1; experiment: Anti-inflammatory activity in human THP1 cells assessed as inhibition of PMA-induced MCP-1 production after 48 hrs by ELISA; assay type: functional, cell-based; settings: THP-1, 48 h
[3] = Cytotoxicity against human THP1 cells assessed as cell viability at 20 uM after 48 hrs by trypan blue dye exclusion assay; assay type: functional; settings: THP-1, 48 h, read-out: Activity

IC50 [1]	IC50 [2]	Compound	viability at 20 µM [3]
6.5 µM	8.5 µM	CCOC(=O)c1cc2c(nc1C)-c1cc(C)c(C)cc1CCC2	95.9%
> 20 µM	5.6 µM	CC1(C)CC(=O)c2cc3c(nc2C1)-c1ccccc1CCC3	98.2%
> 20 µM	14.8 µM	CC(=O)c1cc2c(nc1C)-c1cc(C)c(C)cc1CCC2	97.6%
8.6 µM	16 µM	COC(=O)c1cc2c(nc1C)-c1cc(C)c(C)cc1CCC2	98.3%
17.5 µM	> 20 µM	O=C(c1ccccc1)c1cc2c(nc1-c1ccccc1)-c1ccccc1CCC2	99.4%
> 20 µM	> 20 µM	O=C1CCCc2nc3c(cc21)CCCc1ccccc1-3	96.8%
> 20 µM	> 20 µM	CCOC(=O)c1cc2c(nc1-c1ccccc1)-c1ccccc1CCC2	103%
> 20 µM	> 20 µM	Cc1cc2c(cc1C)-c1nc3c(cc1CCC2)C(=O)CCC3	97.1%
18.2 µM	8.5 µM	CCOC(=O)c1cc2c(nc1-c1ccccc1)-c1cc(C)c(C)cc1CCC2	97.6%
> 20 µM	> 20 µM	Cc1cc2c(cc1C)-c1nc3c(cc1CCC2)C(=O)CC(C)(C)C3	105%
8.2 µM	> 20 µM	COC(=O)c1cc2c(nc1C)-c1ccccc1CCC2	97.2%
> 20 µM	> 20 µM	Cc1cc2c(cc1C)-c1nc(-c3ccccc3)c(C(=O)c3ccccc3)cc1CCC2	101%
6.9 µM	> 20 µM	CCOC(=O)c1cc2c(nc1C)-c1ccccc1CCC2	99.2%
> 20 µM	> 20 µM	CC(=O)c1cc2c(nc1C)-c1ccccc1CCC2	92.3%
18.1 µM		CN1C(C(=O)Nc2ccccn2)=C(O)c2ccccc2S1(=O)=O [PIROXICAM]	98.1%

From ChEMBL document CHEMBL3751757, “Three-component, one-pot synthesis of benzo[6,7]cyclohepta[1,2-b]pyridine derivatives under catalyst free conditions and evaluation of their anti-inflammatory activity” (Bioorg Med Chem Lett, 2016)
